Experimental data taken from paper PMC9037210, “Novel 3-(6-methylpyridin-2-yl)coumarin-based chalcones as selective inhibitors of cancer-related carbonic anhydrases IX and XII endowed with anti-proliferative activity” (Journal of Enzyme Inhibition and Medicinal Chemistry, 2022).
Where two headings read alike, the source gives them in different places.

Legend:
[1] = target: T1, hCA I (Homo sapiens, UniProt P00915); test: stopped-flow CO2 hydrase assay, hCA I; type: biochemical
T1 construct: made in house
Experimental: (§1) The newly synthesised MPCs (3 and 5a–o) were assessed for their CA inhibition activity employing the stopped-flow CO2 hydrase assay[29] for constitutional hCA (I/II) isoforms and cancer-linked hCA (IX/XII) isoforms.
(§2) The CA inhibition activity for the herein reported MPC derivatives was evaluated against the hCA isoforms I, II, IX, and XII using stopped-flow CO2 hydrase test[7]^,[33–36] (see the Supplementary Material).
(§3) Carbonic anhydrase inhibition assay
(§4) The carbonic anhydrase catalyzed CO2 hydration actions for all coumarin-based […]
(§5) Photophysics stopped-flow. The enzymes are recombinant proteins prepared in our lab. Phenol red (at a concentration of 0.2 mM) has been used as indicator, working at […]
(§6) mM Na2SO4 (for maintaining constant the ionic strength), following the initial rates of the CA-catalyzed CO2 hydration reaction for a period of 10-100 s. The CO2 concentrations ranged from 1.7 to 17 mM for the determination of the kinetic parameters and inhibition constants. For each inhibitor at least six traces of the initial 5-10% of the reaction have been used for determining the initial velocity. The uncatalyzed rates were determined in the same manner and subtracted from the total observed rates. Stock solutions of inhibitor (0.1 mM) were prepared in distilled-deionized water and dilutions up to 0.01 nM were done thereafter with the assay buffer. Inhibitor and enzyme solutions were preincubated together for 6 hrs. at room temperature prior to assay, in order to allow for the formation of the E-I complex. The inhibition constants were obtained by non-linear least-squares methods using PRISM 3 and the Cheng-Prusoff equation, and represent the mean from at least three different

[2] = target: T2, hCA II (Homo sapiens, UniProt P00918); test: stopped-flow CO2 hydrase assay, hCA II; type: biochemical; conditions: incubation time of 6 h, mean of three assays, read-out: KI CA II
T2 construct: made in house
Experimental: as §1, §2, §3, §4, §5, §6

[3] = target: T3, hCA XII (Homo sapiens, UniProt O43570); test: stopped-flow CO2 hydrase assay, hCA XII; type: biochemical; conditions: for Selectivity index (SI) (KI off-target CA/KI target CA) Towards hCA XII: ratio of KI for hCA I and II relative to hCA XII; for Ki: stopped-flow, incubation time of 6 h, mean of three assays, read-out: KI CA XII
T3 construct: made in house
Experimental: as §1, §2, §3, §4, §5, §6

[4] = system: MCF7; test: NCI single (10 µM) dose SRB screening, MCF7; type: cell-based, human; conditions: 10 µM single dose, MCF7, Breast cancer
Experimental: (§7) Following NCI protocol, sixteen MPCs were screened for their potential in vitro anticancer effects against human 59 cancer cell panels including prostate, leukaemia melanoma, colon, breast, CNS, renal, NSCLC, and ovarian cancers by National Cancer Institute (USA)[30].
(§8) The antiproliferative activities of MPC 3 and MPCs 5a–o were first evaluated in a 10 µM dose assay, with SRB assay used to determine cell survival and proliferation. […] The results of the cell growth inhibitory activities for MPCs 5g and 5l towards the different treated tumour cell lines were presented as GI% and presented in Table 3.
(§9) The anticancer test was conducted using the methods of the Drug Evaluation Branch, National Cancer Institute, Bethesda, MD, using 59 human tumour cell lines derived from nine human tissues. The GI50, TGI, and LC50 dose-response parameters were calculated for each medication.

[5] = target: T4, hCA IX (Homo sapiens, UniProt Q16790); test: stopped-flow CO2 hydrase assay, hCA IX; type: biochemical; conditions: for Selectivity index (SI) (KI off-target CA/KI target CA) Towards hCA IX: ratio of KI for hCA I and II relative to hCA IX; for Ki: stopped-flow, incubation time of 6 h, mean of three assays, read-out: KI CA IX; for fold decreased inhibitory activity towards hCA IX: relative to phenyl analogue 5a
T4 construct: made in house
Experimental: as §1, §2, §3, §4, §5, §6

[6] = system: LOX IMVI; test: NCI single (10 µM) dose SRB screening, LOX IMVI; type: cell-based, human; conditions: 10 µM single dose, Melanoma
Experimental: as §7, §8, §9

[7] = target: T2, hCA II; conditions: Figure 1; read-out: hCA II inhibition; cited from earlier work
[8] = target: T1, hCA I; conditions: Figure 1; read-out: hCA I inhibition; cited from earlier work
[9] = system: MDA-MB-435; test: NCI single (10 µM) dose SRB screening, MDA-MB-435; type: cell-based, human; conditions: 10 µM single dose, MDA-MB-435, Melanoma
Experimental: as §7, §8, §9

[10] = system: SNB-75; test: NCI single (10 µM) dose SRB screening, SNB-75; type: cell-based, human; conditions: 10 µM single dose, SNB-75, CNS cancer
Experimental: as §7, §8, §9

[11] = target: T4, hCA IX; conditions: Figure 1; read-out: hCA IX inhibition; cited from earlier work
[12] = stopped-flow, incubation time of 6 h, mean of three assays, read-out: KI CA I

T3 sequence (O43570 25-354): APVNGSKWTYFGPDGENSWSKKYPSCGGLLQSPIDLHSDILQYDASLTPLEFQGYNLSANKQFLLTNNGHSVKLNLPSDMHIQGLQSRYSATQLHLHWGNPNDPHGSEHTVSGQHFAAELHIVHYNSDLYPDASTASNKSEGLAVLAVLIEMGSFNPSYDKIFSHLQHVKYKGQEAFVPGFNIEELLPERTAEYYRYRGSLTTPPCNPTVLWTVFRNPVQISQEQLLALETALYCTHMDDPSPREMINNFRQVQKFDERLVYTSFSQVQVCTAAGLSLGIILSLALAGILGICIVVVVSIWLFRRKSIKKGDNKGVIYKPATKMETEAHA
T1 sequence (P00915 whole entry): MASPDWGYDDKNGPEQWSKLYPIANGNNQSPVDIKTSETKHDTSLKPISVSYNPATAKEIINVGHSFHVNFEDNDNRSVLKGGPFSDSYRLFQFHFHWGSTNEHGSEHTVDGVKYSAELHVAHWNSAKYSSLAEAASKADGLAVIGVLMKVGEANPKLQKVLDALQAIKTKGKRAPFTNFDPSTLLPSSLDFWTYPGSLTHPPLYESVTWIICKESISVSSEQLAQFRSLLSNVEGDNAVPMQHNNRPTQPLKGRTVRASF

Ki [1] | Ki [2] | Selectivity index (SI) (KI off-target CA/KI target CA) Towards hCA XII [3] | Ki [3] | Ki [1, 12] | Selectivity index (SI) (KI off-target CA/KI target CA) Towards hCA IX [5] | Ki [5] | melting point | fold decreased inhibitory activity towards hCA IX [5] | SMILES | GI % [4] | GI % [6] | Ki [7] | Ki [8] | GI % [9] | GI % [10] | Ki [11]
> 100 µM | > 100 µM | – | – | – | – | – | – | – | Cc1nc(-c2cc3ccccc3oc2=O)ccc1C(=O)/C=C/c1cccs1 [Compound 5m, 3-(6-Methyl-5-[(2E)-3-(thiophen-2-yl)prop-2-enoyl]pyridin-2-yl)-2H-chromen-2-one] | – | – | – | – | – | – | –
– | > 100 µM | >52.63 | 1.9 µM | > 100 µM | >66.67 | 1.5 µM | – | – | Cc1ccc(/C=C/C(=O)c2ccc(-c3cc4ccccc4oc3=O)nc2C)o1 [Compound 5n, 3-(6-Methyl-5-[(2E)-3–(5-methylfuran-2-yl)prop-2-enoyl]pyridin-2-yl)-2H-chromen-2-one] | 40% | 39% | – | – | – | – | –
– | – | – | – | – | – | – | – | – | O=c1ccc2cc(O)ccc2o1 [III] | – | – | > 100 µM | > 100 µM | – | – | –
– | – | – | – | – | – | – | – | – | O=C(Nc1ccc(Cl)cc1)c1cc2ccc(O)cc2oc1=O [IV] | – | – | > 100 µM | > 100 µM | – | – | –
– | > 100 µM | >12.19 | 8.2 µM | > 100 µM | >23.25 | 4.3 µM | 206 to 208 °C | – | Cc1ccc(/C=C/C(=O)c2ccc(-c3cc4ccccc4oc3=O)nc2C)cc1 [Compound 5d, 3-(6-Methyl-5-[(2E)-3-(4-methylphenyl)prop-2-enoyl]pyridin-2-yl)-2H-chromen-2-one] | – | – | – | – | – | – | –
– | > 100 µM | >14.71 | 6.8 µM | > 100 µM | >18.87 | 5.3 µM | 178 to 180 °C | about 3.5 fold | Cc1nc(-c2cc3ccccc3oc2=O)ccc1C(=O)/C=C/c1ccc2c(c1)OCO2 [Compound 5j, 3-(5-[(2E)-3-(2H-1,3-Benzodioxol-5-yl)prop-2-enoyl]-6-methylpyridin-2-yl)-2H-chromen-2-one] | – | – | – | – | – | – | –
– | > 100 µM | >7.75 | 12.9 µM | > 100 µM | >3.65 | 27.4 µM | 186 to 188 °C | – | COc1cc(/C=C/C(=O)c2ccc(-c3cc4ccccc4oc3=O)nc2C)cc(OC)c1OC [Compound 5i, 3-(6-Methyl-5-[(2E)-3-(3,4,5-trimethoxyphenyl)prop-2-enoyl]pyridin-2-yl)-2H-chromen-2-one] | – | – | – | – | – | – | –
– | > 100 µM | >35.71 | 2.8 µM | > 100 µM | >9.34 | 10.7 µM | 174 to 175 °C | – | COc1ccc(/C=C/C(=O)c2ccc(-c3cc4ccccc4oc3=O)nc2C)cc1 [Compound 5h, 3-(5-[(2E)-3-(4-Methoxyphenyl)prop-2-enoyl]-6-methylpyridin-2-yl)-2H-chromen-2-one] | – | – | – | – | – | – | –
– | > 100 µM | >147.06 | 0.68 µM | > 100 µM | >105.26 | 0.95 µM | – | – | CC(=O)c1ccc(-c2cc3ccccc3oc2=O)nc1C [Compound 3, 3-(5-acetyl-6-methylpyridin-2-yl)-2H-chromen-2-one] | – | – | – | – | – | – | –
– | > 100 µM | >9.17 | 10.9 µM | > 100 µM | >6.10 | 16.4 µM | 202 to 204 °C | – | Cc1nc(-c2cc3ccccc3oc2=O)ccc1C(=O)/C=C/c1ccc([N+](=O)[O-])cc1 [Compound 5e, 3-(6-Methyl-5-[(2E)-3-(4-nitrophenyl)prop-2-enoyl]pyridin-2-yl)-2H-chromen-2-one] | – | – | – | – | – | – | –
– | > 100 µM | >5.62 | 17.8 µM | > 100 µM | >5.15 | 19.4 µM | 204 to 206 °C | – | Cc1nn(-c2ccccc2)cc1/C=C/C(=O)c1ccc(-c2cc3ccccc3oc2=O)nc1C [Compound 5o, 3-(6-Methyl-5-[(2E)-3–(3-methyl-1-phenyl-1H-pyrazol-4-yl)prop-2-enoyl]pyridin-2-yl)-2H-chromen-2-one] | – | – | – | – | – | – | –
– | > 100 µM | >14.92 | 6.7 µM | > 100 µM | >11.76 | 8.5 µM | – | – | Cc1nc(-c2cc3ccccc3oc2=O)ccc1C(=O)/C=C/c1ccc(N(C)C)cc1 [Compound 5f, 3-(5-[(2E)-3-[4-(Dimethylamino)phenyl]prop-2-enoyl]-6-methylpyridin-2-yl)-2H-chromen-2-one] | – | – | – | – | 80% | – | –
– | > 100 µM | >37.04 | 2.7 µM | > 100 µM | >29.41 | 3.4 µM | – | – | Cc1nc(-c2cc3ccccc3oc2=O)ccc1C(=O)/C=C/c1ccc(F)cc1 [Compound 5b, 3-(5-[(2E)-3-(4-Fluorophenyl)prop-2-enoyl]-6-methylpyridin-2-yl)-2H-chromen-2-one] | 49% | 46% | – | – | – | 39% | –
– | > 100 µM | >52.63 | 1.9 µM | > 100 µM | >17.24 | 5.8 µM | 223 to 225 °C | – | Cc1nc(-c2cc3ccccc3oc2=O)ccc1C(=O)/C=C/c1ccc(Cl)cc1 [Compound 5c, 3-(5-[(2E)-3-(4-Chlorophenyl)prop-2-enoyl]-6-methylpyridin-2-yl)-2H-chromen-2-one] | – | – | – | – | – | – | –
– | – | – | – | – | – | – | – | – | O=Cc1ccccc1OCc1cn(CCCOc2ccc3ccc(=O)oc3c2)nn1 [V] | – | – | – | > 10 µM | – | – | 0.13 µM
– | > 100 µM | >19.61 | 5.1 µM | > 100 µM | >66.67 | 1.5 µM | – | – | Cc1nc(-c2cc3ccccc3oc2=O)ccc1C(=O)/C=C/c1ccccc1 [Compound 5a, 3-(6-Methyl-5-[(2E)-3-phenylprop-2-enoyl]pyridin-2-yl)-2H-chromen-2-one] | – | – | – | – | – | – | –
– | > 100 µM | >4.67 | 21.4 µM | > 100 µM | >2.71 | 36.9 µM | 204 to 206 °C | ~23 fold | Cc1nc(-c2cc3ccccc3oc2=O)ccc1C(=O)/C=C/c1cccc2ccccc12 [Compound 5k, 3-(6-Methyl-5-[(2E)-3-(naphthalen-1-yl)prop-2-enoyl]pyridin-2-yl)-2H-chromen-2-one] | – | – | – | – | – | – | –
